Reference: article PMC12721191, “Oxidative hypoxia drives TGF-β1–induced fibrosis under normoxia” (Redox Biology, 2025)

Experiments:
CYP3A = CYP3A (Homo sapiens, UniProt P08684); test: Cytochrome P450 inhibition assay in HLMs; assay type: in vitro ADME; settings: pooled human liver microsomes, probe midazolam (1'-hydroxylation), up to 50 μM
Method: (§1) Cytochrome P450 Inhibition Assay: […] All experiments were performed in triplicate. Phenacetin O-deethylase, coumarin hydroxylase, bupropion hydroxylase, amodiaquine N-deethylase, tolbutamide 4-hydroxylase, S-mephenytoin hydroxylase, dextromethorphan O-demethylase, chlorozoxazone 6-hydroxylase, and midazolam 1’-hydroxylase activities were determined as probe activities for CYP1A2, CYP2A6, CYP2B6, CYP2C8, CYP2C9, CYP2C19, CYP2D6, CYP2E1, and CYP3A, respectively, using cocktail incubation and tandem mass spectrometry, as described previously^2,3.

CYP2B6 = target: T1, CYP2B6 (Homo sapiens, UniProt P20813); test: Cytochrome P450 inhibition assay in HLMs; assay type: in vitro ADME; settings: Bupropion hydroxylation, pooled HLMs, up to 50 μM
T1 construct: tissue Xenotech H0630; host or cells: pooled human liver microsomes
T1 sequence (P20813 1-491): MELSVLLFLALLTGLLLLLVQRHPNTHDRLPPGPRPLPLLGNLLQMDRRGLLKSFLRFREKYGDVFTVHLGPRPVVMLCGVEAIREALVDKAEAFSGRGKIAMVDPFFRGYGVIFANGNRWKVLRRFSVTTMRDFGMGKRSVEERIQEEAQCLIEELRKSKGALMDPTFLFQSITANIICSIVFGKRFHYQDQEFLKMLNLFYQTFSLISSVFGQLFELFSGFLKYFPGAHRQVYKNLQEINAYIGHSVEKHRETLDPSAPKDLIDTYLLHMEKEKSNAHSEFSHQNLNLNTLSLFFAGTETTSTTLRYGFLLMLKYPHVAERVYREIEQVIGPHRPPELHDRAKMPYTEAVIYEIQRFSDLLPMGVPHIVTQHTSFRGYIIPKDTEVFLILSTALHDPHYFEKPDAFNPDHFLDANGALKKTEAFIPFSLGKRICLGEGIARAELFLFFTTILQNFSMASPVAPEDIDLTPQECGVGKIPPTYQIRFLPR
Method: as §1

[1] = test system: BLM-induced pulmonary fibrosis; test: BLM-induced pulmonary fibrosis, Ashcroft scoring of lung sections; assay type: in vivo, ICR mice; settings: BLM 30 mg/kg intratracheal; ACF-2 10 mg/kg i.p. every 2 days or NIDB 60 mg/kg/day in drinking water, 2 weeks; BLM-only 6.2
Method: Male ICR mice received BLM (30 mg/kg, intratracheal). […] Fixed left lung lobes were paraffin-embedded, sectioned (4 μm), and stained with H&E or MT. A blinded pathologist graded pulmonary fibrosis on the 1-8 Ashcroft scale; representative images illustrate typical lesions. Colon samples were processed by the swiss-roll method, stained with H&E, and scored for inflammation and erosion, which were combined into a composite histological score. All animal studies were approved by the Institutional Animal Care and Use Committee of Jeju National University (Approval ID: 2024-0058) and conducted in compliance with institutional guidelines. Male ICR mice (6 weeks old, average body weight 27 g) were purchased from […] (South Korea) and housed under controlled temperature (22 ± 2 °C) and humidity (0.0 ± 15.0 %) on a 12 hr light-dark cycle with free access to food and water. […] Lung tissue: Left lung lobes were fixed in 4% paraformaldehyde for 24 h, dehydrated, and embedded in paraffin. Sections of 4 μm thickness were prepared, deparaffinized with xylene, and rehydrated in a graded ethanol series. H&E staining was performed using hematoxylin and eosin solutions, respectively. The severity of fibrosis was graded according to the Ashcroft scale (1-8), as evaluated by a pathologist blindly. Representative H&E images were chosen to illustrate the most characteristic pathology. […]

Sequence of CYP3A (P08684 2-503): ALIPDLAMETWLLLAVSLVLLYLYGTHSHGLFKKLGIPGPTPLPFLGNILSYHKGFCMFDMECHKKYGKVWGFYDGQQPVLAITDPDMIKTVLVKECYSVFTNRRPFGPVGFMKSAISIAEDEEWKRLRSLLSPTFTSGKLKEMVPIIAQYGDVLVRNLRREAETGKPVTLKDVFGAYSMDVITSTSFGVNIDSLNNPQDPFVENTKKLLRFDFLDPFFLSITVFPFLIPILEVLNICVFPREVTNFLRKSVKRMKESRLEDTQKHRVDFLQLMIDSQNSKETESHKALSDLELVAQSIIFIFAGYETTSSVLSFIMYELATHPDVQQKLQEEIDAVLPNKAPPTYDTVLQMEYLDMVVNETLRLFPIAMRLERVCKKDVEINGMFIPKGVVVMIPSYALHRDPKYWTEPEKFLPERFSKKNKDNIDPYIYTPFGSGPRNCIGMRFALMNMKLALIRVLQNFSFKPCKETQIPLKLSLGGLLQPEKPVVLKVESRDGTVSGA

IC50 (CYP3A): > 50 µM
IC50 (CYP2B6): > 50 µM
Structure (SMILES): COc1ccc(-c2c(-c3ccc(O)c(OC)c3)oc3cc(OC)c(OC)cc3c2=O)cc1 [ACF-2]
Average Ashcroft score [1]: 3.3
